By IC50 is commonly meant the concentration at which inhibition is half-maximal.

In this experiment the target is T1, TrkA kinase (Homo sapiens, UniProt P04629).
T1 construct: purchased Upstate, USA
Nature of the experiment: In vitro TrkA inhibitory activity using TR-FRET assay. The experiment is classed as biochemical. As to conditions: 5 ng TrkA, 500 μM ATP, values given as bins, read-out: TrkA inhibition in-vitro IC50. Put shortly: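 TrkA kinase (5 ng) was preincubated 30 min at 20-35° C. with compound (1% DMSO final), then 40 nM ULight poly GT and 500 μM ATP were added for 30 min before an EDTA stop. Phosphorylation was detected by Eu anti-phosphotyrosine TR-FRET (ex 340, em 615/665 nm), and IC50 came from sigmoidal fits of 1/3 serial dilutions.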
On the technique in general: Time-resolved FRET reads energy transfer from a long-lived donor to a nearby acceptor.

A value given as a limit tells only on which side of the number the result lay.

T1 sequence (P04629 33-796): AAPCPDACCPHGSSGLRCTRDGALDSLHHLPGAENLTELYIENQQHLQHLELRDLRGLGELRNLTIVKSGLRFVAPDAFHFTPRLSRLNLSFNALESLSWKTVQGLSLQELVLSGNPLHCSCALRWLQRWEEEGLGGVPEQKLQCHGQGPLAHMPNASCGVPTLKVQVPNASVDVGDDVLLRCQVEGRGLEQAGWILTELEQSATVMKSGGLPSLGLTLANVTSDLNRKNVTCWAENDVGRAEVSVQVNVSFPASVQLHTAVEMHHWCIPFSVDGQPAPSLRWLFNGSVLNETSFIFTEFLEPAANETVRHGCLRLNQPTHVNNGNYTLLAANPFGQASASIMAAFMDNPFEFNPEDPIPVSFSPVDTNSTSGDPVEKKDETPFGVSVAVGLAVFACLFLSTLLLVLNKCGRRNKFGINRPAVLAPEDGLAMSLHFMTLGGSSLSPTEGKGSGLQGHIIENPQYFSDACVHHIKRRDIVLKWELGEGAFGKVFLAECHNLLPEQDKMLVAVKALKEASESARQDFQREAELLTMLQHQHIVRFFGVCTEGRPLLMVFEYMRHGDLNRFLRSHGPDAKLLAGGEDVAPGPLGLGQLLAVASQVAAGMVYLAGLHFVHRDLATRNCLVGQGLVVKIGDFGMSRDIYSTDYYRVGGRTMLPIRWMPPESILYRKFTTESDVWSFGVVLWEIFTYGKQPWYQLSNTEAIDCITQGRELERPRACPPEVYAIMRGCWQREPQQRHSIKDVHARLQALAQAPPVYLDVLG

With `O=C(O)CNC(=O)c1cnc2ccc(N3CCC[C@H]3c3cc(F)ccc3F)cn12` (single isomer, unassigned) [Example 19, 2-(6-(2-(2,5-difluorophenyl)pyrrolidin-1-yl)imidazo[1,2-a]pyridine-3-carboxamido)acetic acid], the IC50 was 100 to 500 nM.
`CCN(C)S(=O)(=O)NC(=O)c1cnc2ccc(N3C[C@@H](F)C[C@@H]3c3cc(F)ccc3OCCF)cn12` [Example 57, N-(N-ethyl-N-methylsulfamoyl)-6-((2R,4S)-4-fluoro-2-(5-fluoro-2-(2-fluoroethoxy)phenyl)pyrrolidin-1-yl)imidazo[1,2-a]pyridine-3-carboxamide]: the half-inhibitory concentration (IC50) is at most 50 nM.
In the case of `CCN(C)S(=O)(=O)NC(=O)c1cnc2ccc(N3CCC[C@@H]3c3cc(F)ccc3F)cn12` [Example 34, (R)-6-(2-(2,5-difluorophenyl)pyrrolidin-1-yl)-N-(N-ethyl-N-methylsulfamoyl)imidazo[1,2-a]pyridine-3-carboxamide], the IC50 was at most 50 nM.
As to `CN(C)S(=O)(=O)NC(=O)c1cnc2ccc(N3CCC[C@@H]3c3cc(F)ccc3O[C@@H]3CCOC3)cn12` [Example 106, N—(N,N-dimethylsulfamoyl)-6-((R)-2-(5-fluoro-2-(((R)-tetrahydrofuran-3-yl)oxy)phenyl)pyrrolidin-1-yl)imidazo[1,2-a]pyridine-3-carboxamide], the IC50 was at most 50 nM.
`O=C(c1ccc(F)cc1)c1cnc2ccc(N3CCCC3c3cc(F)ccc3F)cn12` (centres unmarked) [Example 10, (6-(2-(2,5-difluorophenyl)pyrrolidin-1-yl)imidazo[1,2-a]pyridin-3-yl)(4-fluorophenyl)methanone]: the IC50 lay in the range of 50 to 100 nM.
For the compound `CN(c1nccs1)S(=O)(=O)NC(=O)c1cnc2ccc(N3CCC[C@@H]3c3cc(F)ccc3OC3CCOCC3)cn12` [Example 81, (R)-6-(2-(5-fluoro-2-((tetrahydro-2H-pyran-4-yl)oxy)phenyl)pyrrolidin-1-yl)-N—(N-methyl-N-(thiazol-2-yl)sulfamoyl)imidazo[1,2-a]pyridine-3-carboxamide], the 50% inhibitory concentration (IC50) is at most 50 nM.
Take `CCCN(C)S(=O)(=O)NC(=O)c1cnc2ccc(N3CCC[C@@H]3c3cc(F)ccc3O[C@@H]3CCOC3)cn12` [Example 107, 6-((R)-2-(5-fluoro-2-(((R)-tetrahydrofuran-3-yl)oxy)phenyl)pyrrolidin-1-yl)-N—(N-methyl-N-propylsulfamoyl)imidazo[1,2-a]pyridine-3-carboxamide]: the IC50 was at most 50 nM.
Then `CCCN(C)S(=O)(=O)NC(=O)c1cnc2ccc(N3CCC[C@@H]3c3cc(F)ccc3F)cn12` [Example 37, (R)-6-(2-(2,5-difluorophenyl)pyrrolidin-1-yl)-N-(N-methyl-N-propylsulfamoyl)imidazo[1,2-a]pyridine-3-carboxamide], with at most 50 nM.
Then `COc1ccc(F)cc1[C@H]1CCCN1c1ccc2ncc(C(=O)NS(=O)(=O)N(C)CCF)n2c1` [Example 56, (R)-6-(2-(5-fluoro-2-methoxyphenyl)pyrrolidin-1-yl)-N-(N-(2-fluoroethyl)-N-methylsulfamoyl)imidazo[1,2-a]pyridine-3-carboxamide], with at most 50 nM.
In the case of `CCCN(C)S(=O)(=O)NC(=O)c1cnc2ccc(N3C[C@@H](F)C[C@@H]3c3cc(F)ccc3OC3CCOCC3)cn12` [Example 88, 6-((2R,4S)-4-fluoro-2-(5-fluoro-2-((tetrahydro-2H-pyran-4-yl)oxy)phenyl)pyrrolidin-1-yl)-N—(N-methyl-N-propylsulfamoyl)imidazo[1,2-a]pyridine-3-carboxamide] it was at most 50 nM; in that of `CN(c1nncs1)S(=O)(=O)NC(=O)c1cnc2ccc(N3CCC[C@@H]3c3cc(F)ccc3OC3CCOCC3)cn12` [Example 86, (R)-6-(2-(5-fluoro-2-((tetrahydro-2H-pyran-4-yl)oxy)phenyl)pyrrolidin-1-yl)-N—(N-methyl-N-(1,3,4-thiadiazol-2-yl)sulfamoyl)imidazo[1,2-a]pyridine-3-carboxamide], at most 50 nM.
Take `O=C(NS(=O)(=O)c1ccc(N2CC[C@H](O)C2)cc1)c1cnc2ccc(N3CCC[C@@H]3c3cc(F)ccc3F)cn12` [Example 36, 6-((R)-2-(2,5-difluorophenyl)pyrrolidin-1-yl)-N-((4-((S)-3-hydroxypyrrolidin-1-yl)phenyl)sulfonyl)imidazo[1,2-a]pyridine-3-carboxamide]: the IC50 is 100 to 500 nM.
As for `CN(c1cccnc1)S(=O)(=O)NC(=O)c1cnc2ccc(N3CCC[C@@H]3c3cc(F)ccc3F)cn12` [Example 43, (R)-6-(2-(2,5-difluorophenyl)pyrrolidin-1-yl)-N-(N-methyl-N-(pyridin-3-yl)sulfamoyl)imidazo[1,2-a]pyridine-3-carboxamide], the IC50 is at most 50 nM.
As for `CC(C)(C)S(=O)(=O)NC(=O)c1cnc2ccc(N3CCC[C@@H]3c3cc(F)ccc3OC3CCOCC3)cn12` [Example 79, (R)—N-(tert-butylsulfonyl)-6-(2-(5-fluoro-2-((tetrahydro-2H-pyran-4-yl)oxy)phenyl)pyrrolidin-1-yl)imidazo[1,2-a]pyridine-3-carboxamide], the IC50 was in the range of 100 to 500 nM.
Take `CC1(S(=O)(=O)NC(=O)c2cnc3ccc(N4CCCCC4c4cc(F)ccc4F)cn23)CC1` (single isomer, unassigned) [Example 69, 6-(2-(2,5-difluorophenyl)piperidin-1-yl)-N-((1-methylcyclo-propyl)sulfonyl)imidazo[1,2-a]pyridine-3-carboxamide]: the half-inhibitory concentration (IC50) is at most 50 nM.
Consider `CCOCCN(C)S(=O)(=O)NC(=O)c1cnc2ccc(N3CCC[C@@H]3c3cc(F)ccc3OC3CCOCC3)cn12` [Example 83, (R)—N—(N-(2-ethoxyethyl)-N-methylsulfamoyl)-6-(2-(5-fluoro-2-((tetrahydro-2H-pyran-4-yl)oxy)phenyl)pyrrolidin-1-yl)imidazo[1,2-a]pyridine-3-carboxamide], for which the IC50 was at most 50 nM.
In the case of `CN(c1ccccn1)S(=O)(=O)NC(=O)c1cnc2ccc(N3CCC[C@@H]3c3cc(F)ccc3OC3CCOCC3)cn12` [Example 84, (R)-6-(2-(5-fluoro-2-((tetrahydro-2H-pyran-4-yl)oxy)phenyl)pyrrolidin-1-yl)-N—(N-methyl-N-(pyridin-2-yl)sulfamoyl)imidazo[1,2-a]pyridine-3-carboxamide], the IC50 was at most 50 nM.
`CN(c1ccccn1)S(=O)(=O)NC(=O)c1cnc2ccc(N3C[C@@H](F)C[C@@H]3c3cc(F)ccc3OC3CCOCC3)cn12` [Example 104, 6-((2R,4S)-4-fluoro-2-(5-fluoro-2-((tetrahydro-2H-pyran-4-yl)oxy)phenyl)pyrrolidin-1-yl)-N—(N-methyl-N-(pyridin-2-yl)sulfamoyl)imidazo[1,2-a]pyridine-3-carboxamide]: the IC50 is at most 50 nM.
Then `CC(C)(C)S(=O)(=O)NC(=O)c1cnc2ccc(N3C[C@@H](F)C[C@@H]3c3cc(F)ccc3OC3CCOCC3)cn12` [Example 94, N-(tert-butylsulfonyl)-6-((2R,4S)-4-fluoro-2-(5-fluoro-2-((tetrahydro-2H-pyran-4-yl)oxy)phenyl)pyrrolidin-1-yl)imidazo[1,2-a]pyridine-3-carboxamide], with 50 to 100 nM.
Then `CC1(S(=O)(=O)NC(=O)c2cnc3ccc(N4CCC[C@@H]4c4cc(F)ccc4F)cn23)CC1` [Example 32, (R)-6-(2-(2,5-difluorophenyl)pyrrolidin-1-yl)-N-((1-methylcyclopropyl)sulfonyl)imidazo[1,2-a]pyridine-3-carboxamide], with 50 to 100 nM.

The record behind these values is patent US9394305B2, “Substituted imidazo[1,2-a]pyridine compounds as tropomyosin receptor kinase a (TrkA) inhibitors” (Dr. Reddy's Laboratories Ltd., priority 2014, dated 2016).
